Experimental data as given in PubChem BioAssay AID1745844 (Carcinogenic Potency Database (CPDB), 2022).
The source made the active and inactive calls. The rule behind the calls is not given here.

Tested on: rodent lifetime carcinogenesis bioassay, tumor incidence TD50
Experiment: carcinogenic potency in animals, long-term in vivo studies, CPDB compilation (AID 1745844)

For Nc1ccc(Cc2ccc(N)cc2)cc1, the TD50 (mouse, strain B6C3F1, females, in drinking water, site: all sites + liver + thyroid gland, lesion: malignant lymphoma, histiocytic type + malignant lymphoma, mixed type + malignant lymphoma, undifferentiated type + malignant, dosed 103 weeks, study length 104 weeks) was 32.6 mg/kg/day, the TD50 (mouse, strain B6C3F1, females, in drinking water, site: all sites, lesion: malignant lymphoma, histiocytic type + malignant lymphoma, mixed type + malignant lymphoma, undifferentiated type + malignant, dosed 103 weeks, study length 104 weeks) was 64.7 mg/kg/day and the TD50 (mouse, strain B6C3F1, females, in drinking water, site: any site (literature study), lesion: several types, types named in the paper, dosed 103 weeks, study length 104 weeks) was 52.1 mg/kg/day. For the same compound, the TD50 (mouse, strain B6C3F1, females, in drinking water, site: liver, lesion: hepatocellular adenoma + hepatocellular carcinoma + neoplastic nodule, dosed 103 weeks, study length 104 weeks) was 59.3 mg/kg/day, the TD50 (mouse, strain B6C3F1, females, in drinking water, site: liver, lesion: hepatocellular adenoma + hepatocellular carcinoma, dosed 103 weeks, study length 104 weeks) was 59.3 mg/kg/day and the TD50 (mouse, strain B6C3F1, females, in drinking water, site: liver, lesion: hepatocellular adenoma, dosed 103 weeks, study length 104 weeks) was 135 mg/kg/day. For the same compound, the TD50 (mouse, strain B6C3F1, females, in drinking water, site: liver, lesion: hepatocellular carcinoma, dosed 103 weeks, study length 104 weeks) was 137 mg/kg/day, the TD50 (mouse, strain B6C3F1, females, in drinking water, site: lung, lesion: alveolar/bronchiolar adenoma + alveolar/bronchiolar carcinoma, dosed 103 weeks, study length 104 weeks) was 268 mg/kg/day and the TD50 (mouse, strain B6C3F1, females, in drinking water, site: lung, lesion: alveolar/bronchiolar adenoma, dosed 103 weeks, study length 104 weeks) was 327 mg/kg/day. It also gave a TD50 (mouse, strain B6C3F1, females, in drinking water, site: thyroid gland, lesion: follicular-cell adenoma + follicular-cell carcinoma, dosed 103 weeks, study length 104 weeks) of 128 mg/kg/day, a TD50 (mouse, strain B6C3F1, females, in drinking water, site: thyroid gland, lesion: follicular-cell adenoma, dosed 103 weeks, study length 104 weeks) of 150 mg/kg/day and a TD50 (mouse, strain B6C3F1, males, in drinking water, site: adrenal gland + liver + thyroid gland, lesion: pheochromocytoma + hepatocellular carcinoma + follicular-cell adenoma, dosed 103 weeks, study length 104 weeks) of 28.7 mg/kg/day. For the same compound, the TD50 (mouse, strain B6C3F1, males, in drinking water, site: adrenal gland, lesion: pheochromocytoma, dosed 103 weeks, study length 104 weeks) was 70 mg/kg/day, the TD50 (mouse, strain B6C3F1, males, in drinking water, site: any site (literature study), lesion: several types, types named in the paper, dosed 103 weeks, study length 104 weeks) was 47.4 mg/kg/day and the TD50 (mouse, strain B6C3F1, males, in drinking water, site: liver, lesion: hepatocellular adenoma + hepatocellular carcinoma + neoplastic nodule, dosed 103 weeks, study length 104 weeks) was 17 mg/kg/day. The TD50 (mouse, strain B6C3F1, males, in drinking water, site: liver, lesion: hepatocellular adenoma + hepatocellular carcinoma, dosed 103 weeks, study length 104 weeks) was 17 mg/kg/day, the TD50 (mouse, strain B6C3F1, males, in drinking water, site: liver, lesion: hepatocellular carcinoma, dosed 103 weeks, study length 104 weeks) was 22.3 mg/kg/day and the TD50 (mouse, strain B6C3F1, males, in drinking water, site: thyroid gland, lesion: follicular-cell adenoma, dosed 103 weeks, study length 104 weeks) was 88.4 mg/kg/day. The TD50 (rat, strain Fischer 344, females, in drinking water, site: any site (literature study), lesion: several types, types named in the paper, dosed 103 weeks, study length 105 weeks) was 277 mg/kg/day, the TD50 (rat, strain Fischer 344, females, in drinking water, site: liver, lesion: hepatocellular adenoma + hepatocellular carcinoma + neoplastic nodule, dosed 103 weeks, study length 105 weeks) was 118 mg/kg/day and the TD50 (rat, strain Fischer 344, females, in drinking water, site: thyroid gland, lesion: c-cell adenoma + c-cell carcinoma, dosed 103 weeks, study length 105 weeks) was 70 mg/kg/day. The TD50 (rat, strain Fischer 344, females, in drinking water, site: thyroid gland, lesion: c-cell adenoma + follicular-cell adenoma, dosed 103 weeks, study length 105 weeks) was 22 mg/kg/day, the TD50 (rat, strain Fischer 344, females, in drinking water, site: thyroid gland, lesion: c-cell adenoma, dosed 103 weeks, study length 105 weeks) was 73.7 mg/kg/day and the TD50 (rat, strain Fischer 344, females, in drinking water, site: thyroid gland, lesion: follicular-cell adenoma + follicular-cell carcinoma, dosed 103 weeks, study length 105 weeks) was 27.2 mg/kg/day. It also gave a TD50 (rat, strain Fischer 344, females, in drinking water, site: thyroid gland, lesion: follicular-cell adenoma, dosed 103 weeks, study length 105 weeks) of 33.5 mg/kg/day, a TD50 (rat, strain Fischer 344, males, in drinking water, site: liver + thyroid gland, lesion: neoplastic nodule + follicular-cell carcinoma, dosed 103 weeks, study length 105 weeks) of 12.5 mg/kg/day and a TD50 (rat, strain Fischer 344, males, in drinking water, site: liver, lesion: hepatocellular adenoma + hepatocellular carcinoma + neoplastic nodule, dosed 103 weeks, study length 105 weeks) of 14.1 mg/kg/day. For the same compound, the TD50 (rat, strain Fischer 344, males, in drinking water, site: liver, lesion: neoplastic nodule, dosed 103 weeks, study length 105 weeks) was 14.3 mg/kg/day, the TD50 (rat, strain Fischer 344, males, in drinking water, site: thyroid gland, lesion: follicular-cell adenoma + follicular-cell carcinoma, dosed 103 weeks, study length 105 weeks) was 49.5 mg/kg/day and the TD50 (rat, strain Fischer 344, males, in drinking water, site: thyroid gland, lesion: follicular-cell carcinoma, dosed 103 weeks, study length 105 weeks) was 85.4 mg/kg/day.
With C=COC(N)=O the TD50 (mouse, strain C57BL/10J, females, i.p., site: liver, lesion: hemangioma, dosed 35 weeks, study length 59 weeks) was 0.147 mg/kg/day, the TD50 (mouse, strain C57BL/10J, females, i.p., site: liver, lesion: hemangiosarcoma, dosed 35 weeks, study length 59 weeks) was 0.138 mg/kg/day and the TD50 (mouse, strain C57BL/10J, females, i.p., site: liver, lesion: hepatocellular adenoma, dosed 35 weeks, study length 59 weeks) was 4.99 mg/kg/day. For the same compound, the TD50 (mouse, strain C57BL/10J, females, i.p., site: liver, lesion: hepatocellular carcinoma, dosed 35 weeks, study length 59 weeks) was 0.503 mg/kg/day, the TD50 (mouse, strain C57BL/10J, males, i.p., site: liver, lesion: hemangioma, dosed 35 weeks, study length 59 weeks) was 0.112 mg/kg/day and the TD50 (mouse, strain C57BL/10J, males, i.p., site: liver, lesion: hemangiosarcoma, dosed 35 weeks, study length 59 weeks) was 0.118 mg/kg/day. The TD50 (mouse, strain C57BL/10J, males, i.p., site: liver, lesion: hepatocellular adenoma, dosed 35 weeks, study length 59 weeks) was 2.69 mg/kg/day and the TD50 (mouse, strain C57BL/10J, males, i.p., site: liver, lesion: hepatocellular carcinoma, dosed 35 weeks, study length 59 weeks) was 0.629 mg/kg/day.
C=C1C/C(=C/C)C(=O)O[C@@H]2CCN3CC=C(COC(=O)[C@@]1(O)CO)[C@H]23 showed a TD50 (mouse, strain B6C3F1, females, by gavage, site: all sites, lesion: hemangioma + hemangiosarcoma, dosed 105 weeks, study length 105 weeks) of 10 mg/kg/day, a TD50 (mouse, strain B6C3F1, females, by gavage, site: any site (literature study), lesion: several types, types named in the paper, dosed 105 weeks, study length 105 weeks) of 0.691 mg/kg/day and a TD50 (mouse, strain B6C3F1, females, by gavage, site: lung, lesion: alveolar/bronchiolar adenoma + alveolar/bronchiolar carcinoma, dosed 105 weeks, study length 105 weeks) of 1.99 mg/kg/day. For the same compound, the TD50 (mouse, strain B6C3F1, females, by gavage, site: lung, lesion: alveolar/bronchiolar adenoma, dosed 105 weeks, study length 105 weeks) was 2.68 mg/kg/day, the TD50 (mouse, strain B6C3F1, males, by gavage, site: all sites, lesion: hemangiosarcoma, dosed 104 weeks, study length 104 weeks) was 1.63 mg/kg/day and the TD50 (mouse, strain B6C3F1, males, by gavage, site: any site (literature study), lesion: several types, types named in the paper, dosed 104 weeks, study length 104 weeks) was 1.09 mg/kg/day. For the same compound, the TD50 (mouse, strain B6C3F1, males, by gavage, site: liver, lesion: hemangiosarcoma, dosed 104 weeks, study length 104 weeks) was 1.96 mg/kg/day, the TD50 (mouse, strain B6C3F1, males, by gavage, site: lung, lesion: alveolar/bronchiolar adenoma + alveolar/bronchiolar carcinoma, dosed 104 weeks, study length 104 weeks) was 5.57 mg/kg/day and the TD50 (rat, strain Fischer 344, females, by gavage, site: all sites + liver, lesion: mononuclear-cell leukemia + hemangiosarcoma + hepatocellular adenoma, dosed 102 weeks, study length 104 weeks) was 0.143 mg/kg/day. The TD50 (rat, strain Fischer 344, females, by gavage, site: all sites + liver, lesion: mononuclear-cell leukemia + hepatocellular adenoma, dosed 102 weeks, study length 104 weeks) was 0.234 mg/kg/day, the TD50 (rat, strain Fischer 344, females, by gavage, site: all sites, lesion: hemangiosarcoma, dosed 102 weeks, study length 104 weeks) was 0.446 mg/kg/day and the TD50 (rat, strain Fischer 344, females, by gavage, site: all sites, lesion: mononuclear-cell leukemia, dosed 102 weeks, study length 104 weeks) was 0.293 mg/kg/day. For the same compound, the TD50 (rat, strain Fischer 344, females, by gavage, site: any site (literature study), lesion: several types, types named in the paper, dosed 102 weeks, study length 104 weeks) was 0.0706 mg/kg/day, the TD50 (rat, strain Fischer 344, females, by gavage, site: liver, lesion: hemangiosarcoma, dosed 102 weeks, study length 104 weeks) was 0.457 mg/kg/day and the TD50 (rat, strain Fischer 344, females, by gavage, site: liver, lesion: hepatocellular adenoma + hepatoblastoma + hepatocellular carcinoma, dosed 102 weeks, study length 104 weeks) was 1.2 mg/kg/day. For the same compound, the TD50 (rat, strain Fischer 344, females, by gavage, site: liver, lesion: hepatocellular adenoma + hepatocellular carcinoma, dosed 102 weeks, study length 104 weeks) was 1.2 mg/kg/day, the TD50 (rat, strain Fischer 344, females, by gavage, site: liver, lesion: hepatocellular adenoma, dosed 102 weeks, study length 104 weeks) was 1.63 mg/kg/day and the TD50 (rat, strain Fischer 344, females, by gavage, site: thyroid gland, lesion: c-cell adenoma + c-cell adenoma, bilateral, dosed 102 weeks, study length 104 weeks) was 0.62 mg/kg/day. For the same compound, the TD50 (rat, strain Fischer 344, males, by gavage, site: all sites + liver, lesion: mononuclear-cell leukemia + hemangiosarcoma + hepatocellular adenoma, dosed 71 weeks, study length 71 weeks) was 0.0665 mg/kg/day, the TD50 (rat, strain Fischer 344, males, by gavage, site: all sites + liver, lesion: mononuclear-cell leukemia + hepatocellular adenoma, dosed 71 weeks, study length 71 weeks) was 0.179 mg/kg/day and the TD50 (rat, strain Fischer 344, males, by gavage, site: all sites, lesion: mononuclear-cell leukemia, dosed 71 weeks, study length 71 weeks) was 0.232 mg/kg/day. For the same compound, the TD50 (rat, strain Fischer 344, males, by gavage, site: any site (literature study), lesion: several types, types named in the paper, dosed 71 weeks, study length 71 weeks) was 0.0267 mg/kg/day, the TD50 (rat, strain Fischer 344, males, by gavage, site: liver, lesion: hemangiosarcoma, dosed 71 weeks, study length 71 weeks) was 0.0744 mg/kg/day and the TD50 (rat, strain Fischer 344, males, by gavage, site: liver, lesion: hepatocellular adenoma + hepatoblastoma + hepatocellular carcinoma, dosed 71 weeks, study length 71 weeks) was 0.584 mg/kg/day. It also gave a TD50 (rat, strain Fischer 344, males, by gavage, site: liver, lesion: hepatocellular adenoma, dosed 71 weeks, study length 71 weeks) of 0.584 mg/kg/day and a TD50 (rat, strain Fischer 344, males, by gavage, site: lung, lesion: alveolar/bronchiolar adenoma, dosed 71 weeks, study length 71 weeks) of 0.528 mg/kg/day.
With CCCCN(N=O)C(=N)N[N+](=O)[O-] the carcinogen call (rat, strain Wistar, males, in drinking water, site: stomach, glandular, lesion: one or several types, types not named, dosed 52 weeks, study length 78 weeks) was “negative (inactive)”.
In the case of NC(=O)N(CCCO)N=O, the TD50 (rat, strain Fischer 344, females, by gavage, site: forestomach, lesion: one or several types, types not named, dosed 30 weeks, study length 104 weeks) is reported as 1.27 mg/kg/day, the TD50 (rat, strain Fischer 344, females, by gavage, site: liver, lesion: one or several types, types not named, dosed 30 weeks, study length 104 weeks) is reported as 1.27 mg/kg/day and the TD50 (rat, strain Fischer 344, males, by gavage, site: forestomach, lesion: one or several types, types not named, dosed 30 weeks, study length 104 weeks) is reported as 1.98 mg/kg/day. The TD50 (rat, strain Fischer 344, males, by gavage, site: forestomach, lesion: one or several types, types not named, dosed 40 weeks, study length 104 weeks) was 0.866 mg/kg/day, the TD50 (rat, strain Fischer 344, males, by gavage, site: liver, lesion: one or several types, types not named, dosed 30 weeks, study length 104 weeks) was 3.78 mg/kg/day and the TD50 (rat, strain Fischer 344, males, by gavage, site: liver, lesion: one or several types, types not named, dosed 40 weeks, study length 104 weeks) was 1.24 mg/kg/day. The TD50 (rat, strain Fischer 344, males, by gavage, site: lung, lesion: several types, types named in the paper, dosed 30 weeks, study length 104 weeks) was 1.79 mg/kg/day, the TD50 (rat, strain Fischer 344, males, by gavage, site: skin, lesion: several types, types named in the paper, dosed 30 weeks, study length 104 weeks) was 0.668 mg/kg/day and the TD50 (rat, strain Fischer 344, males, by gavage, site: stomach, glandular, lesion: one or several types, types not named, dosed 30 weeks, study length 104 weeks) was 0.888 mg/kg/day.
With NNC(N)=S the carcinogen call (mouse, strain Swiss albino, females, in drinking water, site: liver, lesion: hepatoma, dosed 123 weeks, study length 124 weeks) was “negative (inactive)”, the carcinogen call (mouse, strain Swiss albino, females, in drinking water, site: lung, lesion: one or several types, types not named, dosed 123 weeks, study length 124 weeks) was “negative (inactive)” and the carcinogen call (mouse, strain Swiss albino, males, in drinking water, site: liver, lesion: hepatoma, dosed 115 weeks, study length 121 weeks) was “negative (inactive)”. For the same compound, the carcinogen call (mouse, strain Swiss albino, males, in drinking water, site: lung, lesion: one or several types, types not named, dosed 115 weeks, study length 121 weeks) was “negative (inactive)” and the TD50 (rat, strain Charles River CD (Sprague-Dawley), females, in feed, site: mammary gland, lesion: one or several types, types not named, dosed 78 weeks, study length 104 weeks) was 3.07 mg/kg/day.
